Test results as given in patent US9938273B2 (Plexxikon Inc., priority 2015, dated 2018).

Tests used:
[1] = molecular target: T1, FLT3-D835Y (Homo sapiens, UniProt P36888, D835Y); experiment: AlphaScreen kinase assay with recombinant enzyme, FLT3-D835Y; assay type: biochemical; settings: 8pt, GMean
T1 construct: purchased Invitrogen PV3967
T1 sequence (P36888 27-993 D835Y): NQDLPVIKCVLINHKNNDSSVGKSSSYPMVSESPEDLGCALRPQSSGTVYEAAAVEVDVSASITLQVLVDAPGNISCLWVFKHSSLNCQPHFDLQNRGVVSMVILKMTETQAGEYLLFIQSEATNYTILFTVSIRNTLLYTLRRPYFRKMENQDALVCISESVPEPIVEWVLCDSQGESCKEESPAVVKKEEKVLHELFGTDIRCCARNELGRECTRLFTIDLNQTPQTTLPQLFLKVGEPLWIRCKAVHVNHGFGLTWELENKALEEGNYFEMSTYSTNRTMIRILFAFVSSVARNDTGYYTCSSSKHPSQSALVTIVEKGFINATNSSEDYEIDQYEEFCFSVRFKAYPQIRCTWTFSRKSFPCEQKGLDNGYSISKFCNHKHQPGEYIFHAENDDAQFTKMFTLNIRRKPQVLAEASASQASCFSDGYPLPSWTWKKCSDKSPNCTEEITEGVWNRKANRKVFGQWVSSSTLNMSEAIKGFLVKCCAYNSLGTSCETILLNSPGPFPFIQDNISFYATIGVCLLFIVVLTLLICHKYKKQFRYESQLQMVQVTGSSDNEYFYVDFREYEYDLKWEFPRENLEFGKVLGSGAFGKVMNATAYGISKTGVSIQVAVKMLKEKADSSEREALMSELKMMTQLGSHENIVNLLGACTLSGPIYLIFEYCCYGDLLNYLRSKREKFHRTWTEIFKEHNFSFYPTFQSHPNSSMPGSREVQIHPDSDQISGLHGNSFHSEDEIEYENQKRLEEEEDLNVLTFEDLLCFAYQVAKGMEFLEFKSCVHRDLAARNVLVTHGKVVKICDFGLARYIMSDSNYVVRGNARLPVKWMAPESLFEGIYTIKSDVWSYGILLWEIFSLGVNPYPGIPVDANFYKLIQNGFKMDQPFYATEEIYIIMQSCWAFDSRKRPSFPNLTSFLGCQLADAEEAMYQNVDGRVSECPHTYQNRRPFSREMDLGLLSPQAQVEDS
How it was run: (§1)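 Inhibition was measured as a drop in AlphaScreen signal arising from phosphotyrosine-bead capture of a biotinylated poly(Glu4-Tyr) peptide (30 nM) phosphorylated by recombinant kinase. For IC50 work the stated final concentration was 10 μM for the FLT3 mutants and 100 μM for c-KIT.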

[2] = molecular target: T2, c-KIT (Homo sapiens, UniProt P10721); experiment: AlphaScreen kinase assay with recombinant enzyme, c-KIT; assay type: biochemical; settings: 100ATP, 8pt, GMean
T2 construct: purchased Millipore 14-559K
How it was run: as §1

T2 sequence (P10721 26-976): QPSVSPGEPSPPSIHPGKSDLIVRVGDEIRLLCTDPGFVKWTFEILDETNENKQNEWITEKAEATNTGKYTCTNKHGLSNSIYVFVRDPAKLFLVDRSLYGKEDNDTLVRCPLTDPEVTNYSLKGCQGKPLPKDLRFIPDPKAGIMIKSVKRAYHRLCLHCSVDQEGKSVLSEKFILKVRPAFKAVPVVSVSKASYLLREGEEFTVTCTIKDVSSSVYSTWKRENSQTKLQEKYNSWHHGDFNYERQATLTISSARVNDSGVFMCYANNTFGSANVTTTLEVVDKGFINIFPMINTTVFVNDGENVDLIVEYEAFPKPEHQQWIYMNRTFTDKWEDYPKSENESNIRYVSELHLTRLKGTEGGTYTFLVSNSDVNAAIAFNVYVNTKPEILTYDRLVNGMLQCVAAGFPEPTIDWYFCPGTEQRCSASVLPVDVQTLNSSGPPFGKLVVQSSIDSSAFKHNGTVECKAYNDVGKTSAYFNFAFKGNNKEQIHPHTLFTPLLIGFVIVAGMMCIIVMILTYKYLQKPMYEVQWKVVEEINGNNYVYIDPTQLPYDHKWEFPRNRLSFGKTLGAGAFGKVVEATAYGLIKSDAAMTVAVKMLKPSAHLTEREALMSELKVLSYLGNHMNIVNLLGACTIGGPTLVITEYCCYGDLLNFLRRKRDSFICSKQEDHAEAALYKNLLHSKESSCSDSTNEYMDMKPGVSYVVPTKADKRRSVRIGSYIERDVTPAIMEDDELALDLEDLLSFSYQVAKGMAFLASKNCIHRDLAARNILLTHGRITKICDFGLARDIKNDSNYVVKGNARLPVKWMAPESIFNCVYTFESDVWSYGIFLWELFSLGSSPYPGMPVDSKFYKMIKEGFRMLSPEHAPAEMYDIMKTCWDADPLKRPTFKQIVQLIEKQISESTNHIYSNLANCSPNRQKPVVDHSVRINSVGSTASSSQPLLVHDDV

Compound | IC50 [1] [µM] | IC50 [2] [µM]
CC(=O)NC1CCN(C(=O)c2cccc(-c3cnc4[nH]c(-c5ccc(F)cc5)cc4c3)c2)CC1 [Compound P-0001, N-[1-[3-[2-(4-fluorophenyl)-1H-pyrrolo[2,3-b]pyridin-5-yl]benzoyl]-4-piperidyl]acetamide] | 10 to 50 | 0.0001 to 10
CON(C)C(=O)c1cccc(-c2cnc3[nH]c(-c4ccccc4)cc3c2)c1 [Compound P-0002, N-methoxy-N-methyl-3-(2-phenyl-1H-pyrrolo[2,3-b]pyridin-5-yl)benzamide] | 0.0001 to 10 | 0.0001 to 10
NC1CN(C(=O)c2n[nH]c3ccc(-c4cnc5[nH]c(-c6ccccc6)cc5c4)cc23)C1 [Compound P-0029, (3-aminoazetidin-1-yl)-[5-(2-phenyl-1H-pyrrolo[2,3-b]pyridin-5-yl)-1H-indazol-3-yl]methanone] | 0.0001 to 10 | 0.0001 to 10
CNC(=O)C1CCN(C(=O)c2cccc(-c3cnc4[nH]c(-c5ccccc5)cc4c3)n2)CC1 [Compound P-0030, N-methyl-1-[6-(2-phenyl-1H-pyrrolo[2,3-b]pyridin-5-yl)pyridine-2-carbonyl]piperidine-4-carboxamide] | 0.0001 to 10 | 0.0001 to 10
CCNC(=O)NC1CCN(C(=O)c2cccc(-c3cnc4[nH]c(-c5ccccc5)cc4c3)n2)CC1 [Compound P-0031, 1-ethyl-3-[1-[6-(2-phenyl-1H-pyrrolo[2,3-b]pyridin-5-yl)pyridine-2-carbonyl]-4-piperidyl]urea] | 0.0001 to 10 | 0.0001 to 10
CS(=O)(=O)NC1CCN(C(=O)c2cccc(-c3cnc4[nH]c(-c5ccccc5)cc4c3)n2)CC1 [Compound P-0032, N-[1-[6-(2-phenyl-1H-pyrrolo[2,3-b]pyridin-5-yl)pyridine-2-carbonyl]-4-piperidyl]methanesulfonamide] | 0.0001 to 10 | 10 to 50
Cc1ccc(-c2cnc3[nH]c(-c4ccccc4)cc3c2)nc1C(=O)N1CCC(N)CC1 [Compound P-0033, (4-amino-1-piperidyl)-[3-methyl-6-(2-phenyl-1H-pyrrolo[2,3-b]pyridin-5-yl)-2-pyridyl]methanone] | 0.0001 to 10 | 0.0001 to 10
NC1CCN(c2cccc3ccc(-c4cnc5[nH]c(-c6ccccc6)cc5c4)nc23)CC1 [Compound P-0034, 1-[2-(2-phenyl-1H-pyrrolo[2,3-b]pyridin-5-yl)-8-quinolyl]piperidin-4-amine] | 0.0001 to 10 | 0.0001 to 10
Cc1ccc(-c2cnc3[nH]c(-c4ccccc4)cc3c2)cc1C(=O)N1CCC(N)CC1 [Compound P-0035, (4-amino-1-piperidyl)-[2-methyl-5-(2-phenyl-1H-pyrrolo[2,3-b]pyridin-5-yl)phenyl]methanone] | 0.0001 to 10 | 0.0001 to 10
N[C@H]1CCN(C(=O)c2cccc(-c3cnc4[nH]c(-c5ccccc5)cc4c3)c2)C1 [Compound P-0036, [(3S)-3-aminopyrrolidin-1-yl]-[3-(2-phenyl-1H-pyrrolo[2,3-b]pyridin-5-yl)phenyl]methanone] | 0.0001 to 10 | 0.0001 to 10
NC1CCN(C(=O)c2cc(-c3cnc4[nH]c(-c5ccccc5)cc4c3)ccn2)CC1 [Compound P-0038, (4-amino-1-piperidyl)-[4-(2-phenyl-1H-pyrrolo[2,3-b]pyridin-5-yl)-2-pyridyl]methanone] | 0.0001 to 10 | 0.0001 to 10
O=C(NC1CCNCC1)c1n[nH]c2ccc(-c3cnc4[nH]c(-c5ccccc5)cc4c3)cc12 [Compound P-0039, 5-(2-phenyl-1H-pyrrolo[2,3-b]pyridin-5-yl)-N-(4-piperidyl)-1H-indazole-3-carboxamide] | 0.0001 to 10 | 0.0001 to 10
CNC1CCN(C(=O)c2cccc(-c3cnc4[nH]c(-c5ccccc5)cc4c3)n2)CC1 [Compound P-0041, [4-(methylamino)-1-piperidyl]-[6-(2-phenyl-1H-pyrrolo[2,3-b]pyridin-5-yl)-2-pyridyl]methanone] | 0.0001 to 10 | 0.0001 to 10
NC1CCN(C(=O)c2c[nH]c3ccc(-c4cnc5[nH]c(-c6ccccc6)cc5c4)cc23)CC1 [Compound P-0042, (4-amino-1-piperidyl)-[5-(2-phenyl-1H-pyrrolo[2,3-b]pyridin-5-yl)-1H-indol-3-yl]methanone] | 0.0001 to 10 | 0.0001 to 10
O=C(c1cccc(-c2cnc3[nH]c(-c4ccccc4)cc3c2)n1)C1CCNCC1 [Compound P-0043, [6-(2-phenyl-1H-pyrrolo[2,3-b]pyridin-5-yl)-2-pyridyl]-(4-piperidyl)methanone] | 0.0001 to 10 | 0.0001 to 10
CNC1CCN(C(=O)c2n[nH]c3ccc(-c4cnc5[nH]c(-c6ccccc6)cc5c4)cc23)CC1 [Compound P-0044, [4-(methylamino)-1-piperidyl]-[5-(2-phenyl-1H-pyrrolo[2,3-b]pyridin-5-yl)-1H-indazol-3-yl]methanone] | 0.0001 to 10 | 0.0001 to 10
O=C(NC1CCNC1)c1cccc(-c2cnc3[nH]c(-c4ccccc4)cc3c2)n1 (centres unmarked) [Compound P-0045, 6-(2-phenyl-1H-pyrrolo[2,3-b]pyridin-5-yl)-N-pyrrolidin-3-yl-pyridine-2-carboxamide] | 0.0001 to 10 | 0.0001 to 10

The remaining lines, values ahead:

IC50 [1] [µM] | IC50 [2] [µM] | Compound
0.0001 to 10 | 0.0001 to 10 | N[C@H]1CCN(C(=O)c2cc(-c3cnc4[nH]c(-c5ccccc5)cc4c3)ccn2)C1 [Compound P-0046, [(3S)-3-aminopyrrolidin-1-yl]-[4-(2-phenyl-1H-pyrrolo[2,3-b]pyridin-5-yl)-2-pyridyl]methanone]
0.0001 to 10 | 0.0001 to 10 | NC1CCC(C(=O)N2Cc3c(cccc3-c3cnc4[nH]c(-c5ccccc5)cc4c3)C2=O)C1 (centres unmarked) [Compound P-0047, 2-(3-aminocyclopentanecarbonyl)-4-(2-phenyl-1H-pyrrolo[2,3-b]pyridin-5-yl)isoindolin-1-one]
10 to 50 |  | N[C@H]1CCN(C(=O)c2csc(-c3cnc4[nH]c(-c5ccccc5)cc4c3)n2)C1 [Compound P-0048, [(3S)-3-aminopyrrolidin-1-yl]-[2-(2-phenyl-1H-pyrrolo[2,3-b]pyridin-5-yl)thiazol-4-yl]methanone]
0.0001 to 10 | 0.0001 to 10 | c1ccc(-c2cc3cc(-c4ccc5[nH]nc(NC6CNC6)c5c4)cnc3[nH]2)cc1 [Compound P-0053, N-(azetidin-3-yl)-5-(2-phenyl-1H-pyrrolo[2,3-b]pyridin-5-yl)-1H-indazol-3-amine]
0.0001 to 10 | 0.0001 to 10 | c1ccc(-c2cc3cc(-c4ccc5[nH]nc(NC6CCNCC6)c5c4)cnc3[nH]2)cc1 [Compound P-0056, 5-(2-phenyl-1H-pyrrolo[2,3-b]pyridin-5-yl)-N-(4-piperidyl)-1H-indazol-3-amine]
0.0001 to 10 | 0.0001 to 10 | N=C(N)N1CCN(C(=O)c2cccc(-c3cnc4[nH]c(-c5ccccc5)cc4c3)n2)CC1 [Compound P-0057, 4-[6-(2-phenyl-1H-pyrrolo[2,3-b]pyridin-5-yl)pyridine-2-carbonyl]piperazine-1-carboxamidine]
0.0001 to 10 |  | CN(C(=O)c1cccc(-c2cnc3[nH]c(-c4ccccc4)cc3c2)n1)C1CCNC1 (centres unmarked) [Compound P-0076, N-methyl-6-(2-phenyl-1H-pyrrolo[2,3-b]pyridin-5-yl)-N-pyrrolidin-3-yl-pyridine-2-carboxamide]
0.0001 to 10 |  | CNC1CCCN(C(=O)c2cccc(-c3cnc4[nH]c(-c5ccccc5)cc4c3)n2)C1 (centres unmarked) [Compound P-0080, [3-(methylamino)-1-piperidyl]-[6-(2-phenyl-1H-pyrrolo[2,3-b]pyridin-5-yl)-2-pyridyl]methanone]
0.0001 to 10 |  | CC1(N)CCN(C(=O)c2cccc(-c3cnc4[nH]c(-c5ccccc5)cc4c3)n2)CC1 [Compound P-0081, (4-amino-4-methyl-1-piperidyl)-[6-(2-phenyl-1H-pyrrolo[2,3-b]pyridin-5-yl)-2-pyridyl]methanone]
0.0001 to 10 |  | CC1(N)CCCN(C(=O)c2cccc(-c3cnc4[nH]c(-c5ccccc5)cc4c3)n2)C1 (centres unmarked) [Compound P-0082, (3-amino-3-methyl-1-piperidyl)-[6-(2-phenyl-1H-pyrrolo[2,3-b]pyridin-5-yl)-2-pyridyl]methanone]
0.0001 to 10 |  | N[C@@H]1CN(C(=O)c2cccc(-c3cnc4[nH]c(-c5ccccc5)cc4c3)n2)CC12CC2 [Compound P-0083, [(7S)-7-amino-5-azaspiro[2.4]heptan-5-yl]-[6-(2-phenyl-1H-pyrrolo[2,3-b]pyridin-5-yl)-2-pyridyl]methanone]
